Measured values reported in paper PMC11456916, “A screen for cell envelope stress uncovers an inhibitor of prolipoprotein diacylglyceryl transferase, Lgt, in Escherichiacoli” (iScience, 2024).

Test system: 356 CRISPRi constructs in E. coli ΔtolC-pore
Test: CRISPRi collection fitness screen with sub-inhibitory compound
Assay type: cell-based
Conditions: for Growth represented as mean colony biomass: 1μg/ml MAC0452936, 6ng/ml LolCDE-in-1, 250 ng/ml Vancomycin, 7 ng/ml CHIR090, n=4; for Growth, mean colony biomass (n=4): + 6ng/ml LolCDE-in-1
Excerpt: To that end, we screened the E. coli CRISPRi collection in the ΔtolC-pore genetic background with a sub-inhibitory concentration of MAC-0452936 and measured the fitness of all 356 CRISPRi mutants (Figure 4C and Data S4). […] To that end, we introduced either an arabinose inducible copy of lgt supplied on the pCHAP9231 plasmid[48] or the pBAD19s plasmid as a control into E. coli ΔtolC-pore and tested the potency of MAC-0452936 (Figure 4E). […] To test this hypothesis, we constructed E. coli ΔlgtΔtolC-pore with pCHAP9231[48] so that lgt expression was driven solely by arabinose from the plasmid.
For screens of the CRISPRi collection with MAC-0452936, the mobile CRISPRi collection was first conjugated into E. coli ΔtolC-pore as previously described.[30] The CRISPRi collection was then arrayed on solid agar at 1536 density using the Singer-ROTOR, such that each CRISPRi strain is arrayed in technical quadruplicate. […] The screens were conducted without CRISPRi induction, using just the 5–10% basal knockdown from the pFD152 CRISPRi plasmid. Following overnight growth, plates were imaged using high-resolution scanners (Epson Perfection v750), and colony biomass for each mutant was determined.

## Fc1ccc(COc2cccc(-c3[nH]ncc3-c3ccncc3)c2)cc1 [LolCDE-in-1]
gRNA accA
  Growth represented as mean colony biomass: 1.008
gRNA aceF
  Growth, mean colony biomass (n=4): 1.072
gRNA alaS
  Growth, mean colony biomass (n=4): 1.101
gRNA argS
  Growth, mean colony biomass (n=4): 1.113
gRNA asnS
  Growth, mean colony biomass (n=4): 1.091
gRNA bamA
  Growth, mean colony biomass (n=4): 1.074
gRNA bamD
  Growth, mean colony biomass (n=4): 0.9928
gRNA bioA
  Growth, mean colony biomass (n=4): 1.016
gRNA can
  Growth, mean colony biomass (n=4): 1.04
gRNA cca
  Growth represented as mean colony biomass: 1
gRNA coaA
  Growth represented as mean colony biomass: 1.117
gRNA csrA
  Growth, mean colony biomass (n=4): 0.5912
gRNA cydA
  Growth represented as mean colony biomass: 1.002
gRNA cydX
  Growth represented as mean colony biomass: 0.9564
gRNA dapD
  Growth represented as mean colony biomass: 0.9627
gRNA dapE
  Growth represented as mean colony biomass: 0.9407
gRNA der
  Growth represented as mean colony biomass: 0.9198
gRNA dfp
  Growth represented as mean colony biomass: 0.9029
gRNA dnaC
  Growth, mean colony biomass (n=4): 1.011
gRNA dnaE
  Growth represented as mean colony biomass: 1.003
gRNA dnaN
  Growth represented as mean colony biomass: 0.9294
gRNA dnaX
  Growth represented as mean colony biomass: 0.8532
gRNA dut
  Growth, mean colony biomass (n=4): 1.113
gRNA eno
  Growth represented as mean colony biomass: 1.0061
gRNA era
  Growth represented as mean colony biomass: 0.9669
gRNA fabA
  Growth represented as mean colony biomass: 0.9879
gRNA fabG
  Growth represented as mean colony biomass: 0.9717
gRNA fabI
  Growth represented as mean colony biomass: 0.9771
gRNA fdx
  Growth represented as mean colony biomass: 0.998
gRNA fldA
  Growth represented as mean colony biomass: 1.014
gRNA folA
  Growth, mean colony biomass (n=4): 1.074
gRNA folB
  Growth represented as mean colony biomass: 1.004
gRNA folC
  Growth, mean colony biomass (n=4): 0.9924
gRNA folE
  Growth represented as mean colony biomass: 1.028
gRNA folP
  Growth represented as mean colony biomass: 1.013
gRNA frr
  Growth represented as mean colony biomass: 0.8456
gRNA ftsA
  Growth, mean colony biomass (n=4): 0.866
gRNA gapA
  Growth represented as mean colony biomass: 0.9875
gRNA glmS
  Growth, mean colony biomass (n=4): 1.023
gRNA glmU
  Growth represented as mean colony biomass: 0.9948
gRNA gltX
  Growth represented as mean colony biomass: 1.01
gRNA glyA
  Growth, mean colony biomass (n=4): 0.9609
gRNA groS
  Growth represented as mean colony biomass: 0.8911
gRNA grpE
  Growth represented as mean colony biomass: 0.9325
gRNA guaA
  Growth represented as mean colony biomass: 1.005
gRNA hemD
  Growth, mean colony biomass (n=4): 1.064
gRNA hemG
  Growth represented as mean colony biomass: 0.9487
gRNA hemH
  Growth represented as mean colony biomass: 0.9202
gRNA hemL
  Growth represented as mean colony biomass: 0.9936
gRNA higA
  Growth represented as mean colony biomass: 0.9523
gRNA hisS
  Growth represented as mean colony biomass: 0.9867
gRNA holD
  Growth represented as mean colony biomass: 1.037
gRNA hscA
  Growth represented as mean colony biomass: 1.068
gRNA infA
  Growth, mean colony biomass (n=4): 1.13
gRNA infC
  Growth represented as mean colony biomass: 0.9943
gRNA iscU
  Growth represented as mean colony biomass: 0.9298
gRNA ispB
  Growth represented as mean colony biomass: 0.9724
gRNA ispF
  Growth represented as mean colony biomass: 0.9965
gRNA leuS
  Growth, mean colony biomass (n=4): 1.148
gRNA lexA
  Growth, mean colony biomass (n=4): 0.4661
gRNA lolC
  Growth represented as mean colony biomass: 0.5845
gRNA lptA
  Growth, mean colony biomass (n=4): 1.047
gRNA lptB
  Growth, mean colony biomass (n=4): 0.9337
gRNA lptC
  Growth represented as mean colony biomass: 0.8997
gRNA lptE
  Growth represented as mean colony biomass: 0.9982
gRNA lptF
  Growth represented as mean colony biomass: 0.9678
gRNA lptG
  Growth represented as mean colony biomass: 1.0135
gRNA lpxC
  Growth represented as mean colony biomass: 0.9296
gRNA lpxD
  Growth represented as mean colony biomass: 0.9894
gRNA mnmA
  Growth, mean colony biomass (n=4): 1.137
gRNA mrdB
  Growth, mean colony biomass (n=4): 0.9351
gRNA mreB
  Growth represented as mean colony biomass: 0.9708
gRNA mreC
  Growth represented as mean colony biomass: 0.8551
gRNA msbA
  Growth, mean colony biomass (n=4): 1.057
gRNA mukF
  Growth, mean colony biomass (n=4): 0.8694
gRNA murB
  Growth represented as mean colony biomass: 1.046
gRNA murC
  Growth represented as mean colony biomass: 0.881
gRNA murI
  Growth, mean colony biomass (n=4): 0.5015
gRNA nadK
  Growth, mean colony biomass (n=4): 1.043
gRNA nusB
  Growth represented as mean colony biomass: 0.9929
